Earlier results as cited in patent US5723149A, “Use of medicago saponins for the preparation of cosmetic or pharmaceutical compositions, especially dermatological compositions, promoting renewal of the epidermis, stimulating hair regrowth or delaying hair loss” (LVMH Recherche, priority 1990, dated 1998).

How the values were obtained:
[1] = B. GESTETNER et al., Experientia, 1971
[2] = DE-3 717 280

SMILES: CC1(C)CC[C@]2(C(=O)O)CC[C@]3(C)C(=CC[C@@H]4[C@@]5(C)C[C@H](O)[C@H](O)[C@@](C)(C(=O)O)[C@@H]5CC[C@]43C)[C@@H]2C1 [medicagenic acid]
- hemolytic activity [1]: hemolytic activity
- antifungal activity [2]: antifungal activity
